# Measurements: patent publication US8354443B2, “Cyclopropane indolinone derivatives” (Hoffmann-La Roche Inc., priority 2009, dated 2013)
# Test system: recombinant AMPK proteins (α1β1γ1, α2β1γ1, α1(1-335), α1(1-394) or α2(1-394))
# Test: Scintillation Proximity Assay (AMPK activation)
# Format: biochemical, human
# Conditions: effective concentration of activator for 50% of maximal enzyme activity; 2 hr at 30° C.; AMPK form not specified
# From the text: Recombinant human AMPK α1β1γ1, α2β1γ1 or AMPK a subunit truncations α1 (1-335), α1 (1-394) and α2(1-394) were constructed, expressed and purified as described previously (Pang, T., Zhang, Z. S., Gu, M., Qiu, B. Y., Yu, L. F., Cao, P. R., Shao, W., Su, M. B., Li, J. Y., Nan, F. J., and Li, J. (2008) or purchased from Invitrogen (San Diego, Calif., U.S.A.). Rat liver AMPK heterotrimer enzyme was obtained from Upstate (Billerica, Mass., U.S.A.).
# Before the Scintillation Proximity Assay (SPA) assay, 200 nM recombinant AMPK proteins (α1β1γ1, α2β1γ1, α1(1-335), α1(1-394) or α2(1-394)) were fully phosphorylated as described previously (Pang et al., 2008). SPA reactions were performed in 96-well plates at a final volume of 50 μl containing 20 mM Tris-HCl pH 7.5, 5 mM MgCl2, 1 mM DTT, 2 μM biotin-SAMS, 2 μM ATP, 0.2 μCi/well [γ-^33P]ATP, and various amount of activator. Reactions were initiated by the addition of 50 nM recombinant AMPK proteins to the reaction solutions and incubated at 30° C. for 2 hr. After that, reactions were terminated by the addition of 40 μl stop solution containing 80 μg streptavidin-coated SPA beads per well, 50 mM EDTA, 0.1% Triton X-100 in PBS, pH 7.5 and incubated for 1 hr. Finally, a 160 μl suspension solution containing 2.4 M CsCl, 50 mM EDTA, and 0.1% Triton X-100 in PBS (pH 7.5) was added to the reaction solution to suspend SPA beads completely. SPA signals were determined with a Wallac MicroBeta plate counter (PerkinElmer) 30 min later for calculation of the amount of product formed. The amount of products formed in 2 hr was plotted against activator concentrations to determine the effective concentration of the activator (EC50) required for 50% of maximal enzyme activity.
row,SMILES,EC50 [nM]
1,"CS(=O)(=O)N1CCC(CN2C(=O)[C@]3(C[C@@H]3c3ccc(Cl)cc3)c3ccccc32)CC1 (racemic) [Example 73, (1S,2R) and (1R,2S)-2-(4-chlorophenyl)-1′-((1-(methylsulfonyl)piperidin-4-yl)methyl) Spiro[cyclopropane-1,3′-indolin]-2′-one]",1650
2,"CC(C)N1CCN(CCN2C(=O)[C@]3(C[C@@H]3c3ccc(Cl)cc3)c3ccccc32)CC1 (racemic) [Example 74, (1S,2R) and (1R,2S)-2-(4-chlorophenyl)-1′-(2-(4-isopropylpiperazin-1-yl)ethyl)spiro [cyclopropane-1,3′-indolin]-2′-one]",8800
3,"CN(C)CCN1CCN(CCN2C(=O)[C@]3(C[C@@H]3c3ccc(Cl)cc3)c3ccccc32)CC1 (racemic) [Example 75, (1S,2R) and (1R,2S)-2-(4-chlorophenyl)-1′-(2-(4-(2-(dimethylamino)ethyl)piperazin-1-yl)ethyl) Spiro[cyclopropane-1,3′-indolin]-2′-one]",5910
4,"O=C1N(Cc2ccncc2)c2ccccc2[C@]12C[C@H]2c1ccc(Cl)cc1 (racemic) [Example 78, (1R,2S) and (1S,2R)-2-(4-chlorophenyl)-1′-(pyridin-4-ylmethyl)spiro[cyclopropane-1,3′-indolin]-2′-one]",4200
5,"O=C1N(Cc2cccnc2)c2ccccc2[C@@]12C[C@@H]2c1ccc(Cl)cc1 (racemic) [Example 79, (1S,2R) and (2R,1S)-2-(4-chlorophenyl)-1′-(pyridin-3-ylmethyl)spiro[cyclopropane-1,3′-indolin]-2′-one]",2600
6,"O=C(O)Cn1cnc(N2C(=O)[C@]3(C[C@@H]3c3ccc(Cl)cc3)c3ccccc32)c1 (racemic) [Example 80, (1S,2R) and (1R,2S)-2-(4-(2-(4-chlorophenyl)-2′-oxospiro[cyclopropane-1,3′-indoline]-1′-yl)-1 H-imidazol-1-yl)acetic acid]",1250
7,"O=C(O)c1cn(CCN2C(=O)[C@]3(C[C@@H]3c3ccc(Cl)cc3)c3ccccc32)cn1 (racemic) [Example 81, (1S,2R) and (1R,2S)-1-(2-(2-(4-chlorophenyl)-2′-oxospiro[cyclopropane-1,3′-indoline]-1′-yl)ethyl)-1H-imidazole-4-carboxylic acid]",2220
8,"O=C(O)c1cn(CCN2C(=O)[C@]3(C[C@H]3c3ccc(Cl)cc3)c3ccccc32)cn1 (racemic) [Example 82, (1S,2S) and (1R,2R)-1-(2-(2-(4-chlorophenyl)-2′-oxospiro[cyclopropane-1,3′-indoline]-1′-yl)ethyl)-1H-imidazole-4-carboxylic acid]",4030
9,"O=C(O)c1cccc(N2C(=O)[C@]3(C[C@@H]3c3ccc(Cl)cc3)c3ccccc32)c1 (racemic) [Example 83, (1S,2R) and (1R,2S)-3-(2-(4-chlorophenyl)-2′-oxospiro[cyclopropane-1,3′-indoline]-1′-yl)benzoic acid]",2590
10,"O=C(O)c1cccc(N2C(=O)[C@]3(C[C@H]3c3ccc(Cl)cc3)c3ccccc32)c1 (racemic) [Example 84, (1S,2S) and (1R,2R)-3-(−2-(4-chlorophenyl)-2′-oxospiro[cyclopropane-1,3′-indoline]-1′-yl)benzoic acid]",2980
11,"O=C(c1cccc(N2C(=O)[C@]3(C[C@H]3c3ccc(Cl)cc3)c3ccccc32)c1)N1CCOCC1 (racemic) [Example 85, (1S,2S) and (1R,2R)-2-(4-chlorophenyl)-1′-(3-(morpholine-4-carbonyl)phenyl)spiro [cyclopropane-1,3′-indolin]-2′-one]",950
12,"CN1CCN(C(=O)c2cccc(N3C(=O)[C@]4(C[C@H]4c4ccc(Cl)cc4)c4ccccc43)c2)CC1 (racemic) [Example 86, (1S,2S) and (1R,2R)-2-(4-chlorophenyl)-1′-(3-(4-methylpiperazine-1-carbonyl)phenyl) Spiro[cyclopropane-1,3′-indolin]-2′-one]",1730
13,"CS(=O)(=O)N1CCN(C(=O)c2cccc(N3C(=O)[C@]4(C[C@H]4c4ccc(Cl)cc4)c4ccccc43)c2)CC1 (racemic) [Example 87, (1S,2S) and (1R,2R)-2-(4-chlorophenyl)-1′-(3-(4-(methylsulfonyl)piperazine-1-carbonyl)phenyl)spiro[cyclopropane-1,3′-indolin]-2′-one]",6730
14,"O=C(c1cccc(N2C(=O)[C@@]3(C[C@H]3c3ccc(Cl)cc3)c3ccccc32)c1)N1CCOCC1 (racemic) [Example 88, (1R,2S) and (1S,2R)-2-(4-chlorophenyl)-1′-(3-(morpholine-4-carbonyl)phenyl)spiro [cyclopropane-1,3′-indolin]-2′-one]",2560
15,"CN1CCN(C(=O)c2cccc(N3C(=O)[C@]4(C[C@@H]4c4ccc(Cl)cc4)c4ccccc43)c2)CC1 (racemic) [Example 89, (1S,2R) and (1R,2S)-2-(4-chlorophenyl)-1′-(3-(4-methylpiperazine-1-carbonyl)phenyl)spiro[cyclopropane-1,3′-indolin]-2′-one]",1400
16,"CS(=O)(=O)N1CCN(C(=O)c2cccc(N3C(=O)[C@]4(C[C@@H]4c4ccc(Cl)cc4)c4ccccc43)c2)CC1 (racemic) [Example 90, (1R,2S) and (1S,2R)-2-(4-chlorophenyl)-1′-(3-(4-(methylsulfonyl)piperazine-1-carbonyl)phenyl)spiro[cyclopropane-1,3′-indolin]-2′-one]",1470
17,"CS(=O)(=O)NC(=O)c1cccc(N2C(=O)[C@@]3(C[C@@H]3c3ccc(Cl)cc3)c3ccccc32)c1 (racemic) [Example 91, (1R,2R) and (1S,2S)-3-(2-(4-chlorophenyl)-2′-oxospiro[cyclopropane-1,3′-indoline]-1′-yl)-N-(methylsulfonyl)benzamide]",1550
18,"O=C(O)c1cc(N2CCOC2=O)cc(N2C(=O)[C@]3(C[C@H]3c3ccc(Cl)cc3)c3ccccc32)c1 (racemic) [Example 92, (1S,2S) and (1R,2R)-3-(2-(4-chlorophenyl)-2′-oxospiro[cyclopropane-1,3′-indoline]-1′-yl)-5-(2-oxooxazolidin-3-yl)benzoic acid]",870
19,"CS(=O)(=O)c1cc(C(=O)O)cc(N2C(=O)[C@]3(C[C@H]3c3ccc(Cl)cc3)c3ccccc32)c1 (racemic) [Example 93, (1S,2S) and (1R,2R)-3-(2-(4-chlorophenyl)-2′-oxospiro[cyclopropane-1,3′-indoline]-1′-yl)-5-(methylsulfonyl)benzoic acid]",910
20,"O=C(O)c1cc(N2CCCC2=O)cc(N2C(=O)[C@]3(C[C@H]3c3ccc(Cl)cc3)c3ccccc32)c1 (racemic) [Example 94, (1S,2S) and (1R,2R)-3-(2-(4-chlorophenyl)-2′-oxospiro[cyclopropane-1,3′-indoline]-1′-yl)-5-(2-oxopyrrolidin-1-yl)benzoic acid]",1500
21,"CNC(=O)c1cccc(CN2C(=O)[C@@]3(C[C@H]3c3ccc(Cl)cc3)c3ccccc32)c1 (racemic) [Example 110, (1R,2S) and (1S,2R)-3-((2-(4-chlorophenyl)-2′-oxospiro[cyclopropane-1,3′-indoline]-1′-yl)methyl)-N-methylbenzamide]",1370
22,"O=C(NCCCN1CCOCC1)c1cccc(CN2C(=O)[C@@]3(C[C@H]3c3ccc(Cl)cc3)c3ccccc32)c1 (racemic) [Example 112, (1R,2S) and (1S,2R)-3-((2-(4-chlorophenyl)-2′-oxospiro[cyclopropane-1,3′-indoline]-1′-yl)methyl)-N-(3-morpholinopropyl)benzamide]",1270
23,"CN(C)CCN1CCN(C(=O)c2cccc(CN3C(=O)[C@@]4(C[C@H]4c4ccc(Cl)cc4)c4ccccc43)c2)CC1 (racemic) [Example 113, (1R,2S) and (1S,2R)-2-(4-chlorophenyl)-1′-(3-(4-(2-(dimethylamino)ethyl)piperazine-1-carbonyl)benzyl)spiro[cyclopropane-1,3′-indolin]-2′-one]",1840
24,"O=C(NCCN1CCOCC1)c1cccc(CN2C(=O)[C@@]3(C[C@H]3c3ccc(Cl)cc3)c3ccccc32)c1 (racemic) [Example 114, (1R,2S) and (1S,2R)-3-((2-(4-chlorophenyl)-2′-oxospiro[cyclopropane-1,3′-indoline]-1′-yl)methyl)-N-(2-morpholinoethyl)benzamide]",6480
25,"CS(=O)(=O)N1CCN(C(=O)c2cccc(CN3C(=O)[C@@]4(C[C@H]4c4ccc(Cl)cc4)c4ccccc43)c2)CC1 (racemic) [Example 115, (1R,2S) and (1S,2R)-2-(4-chlorophenyl)-1′-(3-(4-(methylsulfonyl)piperazine-1-carbonyl)benzyl)spiro[cyclopropane-1,3′-indolin]-2′-one]",5140
